The test deals with T1, Cu/ZnSOD from porcine erythrocytes (Sus scrofa, UniProt P04178).
T1 construct: gene SOD1; native, purchased (Biodee Biotechnology), from porcine erythrocytes; homodimer; human structure 1HL4 used only for docking
The experiment in a line: NBT photoreduction assay. Particulars: read-out: relative activity (%) at 100 nM MBI. Format: biochemical.

T1 sequence (P04178 2-153): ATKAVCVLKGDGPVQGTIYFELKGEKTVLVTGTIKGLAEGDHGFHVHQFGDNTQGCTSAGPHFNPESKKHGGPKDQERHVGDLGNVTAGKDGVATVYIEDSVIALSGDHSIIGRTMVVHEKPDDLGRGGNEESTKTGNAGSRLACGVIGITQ

As to `S=c1[nH]c2ccccc2[nH]1` [MBI], the activity at 0.1 µM was determined as 89.3 ± 1.2%.

The values above are taken from PMC4144957, “Molecular Interaction Mechanism between 2-Mercaptobenzimidazole and Copper-Zinc Superoxide Dismutase” (PLoS ONE, 2014).
